In US20200392150A1, “Diaryl-B-Lactam Compound and Preparation Method and Pharmaceutical Use Thereof” (Fudan University, priority 2016, published 2020) one finds IC50 data, which are given here for 25 compounds.

What all share (test): In vitro cell growth inhibition assay (MTT)
Holding throughout (assay type): cell-based, human

In assay [1] the test system is MDA-MB-231. The settings on record: MDA-MB-231 human breast cancer cell line, 48 h, MTT; read-out: IC50 MDA-MB-231. The procedure: (§1) 5000 tumor cells per well were seeded into 96-well plate and allowed to adhere overnight. Cells were treated with various concentrations of tested compounds or DMSO (0.2%, as negative control) for 48 h. Then, the medium along with tested compounds or DMSO was discarded and […] per well MTT containing medium (0.5 mg/mL) was added. After incubation at 37° C. for 4 h, the MTT-containing medium was replaced by DMSO (150 μL per well) to dissolve the formazan crystals. Absorbance of the resulting solution was measured by microplate reader (Biotech ELx800) at 540 nm wavelength. Growth inhibition rates were calculated with the absorbance. Half maximal inhibitory concentration (IC50) of each compound was calculated using GraphPad Prism, version 6.0.

For assay [2], the system named is SKOV3. The settings on record: SK-OV-3; SKOV-3 human ovarian cancer cell line, 48 h, MTT; read-out: IC50 SKOV3. The procedure:
as §1

Assay [3] concerns Hela. To be noted: Hela human cervical cancer cell line, 48 h, MTT; read-out: IC50 Hela. The procedure: as §1
The subject of assay [4] is A2780. The settings on record: A2780 human ovarian cancer cell line, 48 h, MTT; read-out: IC50 A2780. The procedure: as §1

pIC50: −log10 of the molar value. Where only a bound is given, the exact number is not on record here.

The term pIC50 denotes the IC50 on a negative log10 scale, so that one unit is a factor of ten. With `C=C1C(=O)N(c2cc(OC)c(OC)c(OC)c2)[C@H]1c1ccc(OC)c(OCCO)c1` [Compound 8, (S)-4-(3-(2-hydroxyethoxy)-4-methoxyphenyl)-3-methylene-1-(3,4,5-trimethoxyphenyl)azetidin-2-one], the pIC50 in assay [1] was 6.07; in assay [2] it was 6.08; in assay [3], 6.03; in assay [4], 6.46.

For the compound `C=C1C(=O)N(c2cc(OC)c(OC)c(OC)c2)[C@H]1c1ccc(OC)c(OCCCO)c1` [Compound 9, (S)-4-(3-(3-hydroxypropoxy)-4-methoxyphenyl)-3-methylene-1-(3,4,5-trimethoxyphenyl)azetidin-2-one], the pIC50 in assay [1] was 5.72; in assay [2] it was 5.52; in assay [3] it was 5.13; in assay [4] it was 5.81.

As to `C=C1C(=O)N(c2cc(OC)c(OC)c(OC)c2)[C@H]1c1ccc(OC)c(OCC(=O)OCC)c1` [Compound 12, (5)-ethyl 2-(2-methoxy-5-(3-methylene-4-oxo-1-(3,4,5-trimethoxyphenyl)azetidin-2-yl)phenoxy)acetate], the negative-log IC50 (pIC50) in assay [1], in assay [2], in assay [3] and in assay [4] was < 4.70 each time.

For `C=C1C(=O)N(c2cc(OC)c(OC)c(OC)c2)[C@H]1c1ccc(OC)c(OCC(=O)OC(C)(C)C)c1` [Compound 13, (S)-tert-butyl 2-(2-methoxy-5-(3-methylene-4-oxo-1-(3,4,5-trimethoxyphenyl)azetidin-2-yl)phenoxy)acetate], the pIC50 in assay [1], in assay [2], in assay [3] and in assay [4] was < 5.00 each time.

In the case of `C/C=C1\C(=O)N(c2cc(OC)c(OC)c(OC)c2)[C@H]1c1ccc(OC)c(O)c1` [Compound 55, (S,Z)-3-ethylidene-4-(3-hydroxy-4-methoxyphenyl)-1-(3,4,5-trimethoxyphenyl)azetidin-2-one], the negative-log IC50 (pIC50) in assay [2] was 5.56; in assay [3], 5.58.

For the compound `C/C=C1/C(=O)N(c2cc(OC)c(OC)c(OC)c2)[C@H]1c1ccc(OC)c(O)c1` [Compound 56, (S,E)-3-ethylidene-4-(3-hydroxy-4-methoxyphenyl)-1-(3,4,5-trimethoxyphenyl)azetidin-2-one], the pIC50 in assay [2] was 5.55; in assay [3], 5.53.

Take `COc1ccc([C@H]2[C@@H](Cc3ccc(O)cc3)C(=O)N2c2cc(OC)c(OC)c(OC)c2)cc1O` [Compound 60, (3R,4R)-4-(3-hydroxy-4-methoxyphenyl)-3-(4-hydroxybenzyl)-1-(3,4,5-trimethoxyphenyl)azetidin-2-one]: the pIC50 in assay [2] was 5.54; in assay [3], 5.14.

As to `COc1ccc([C@H]2[C@@H](CO)C(=O)N2c2cc(OC)c(OC)c(OC)c2)cc1O` [Compound 68, (3S,4R)-4-(3-hydroxy-4-methoxyphenyl)-3-(hydroxymethyl)-1-(3,4,5-trimethoxyphenyl)azetidin-2-one], the pIC50 in assay [1] is 6.74; in assay [3], 6.45; in assay [4], 6.66.

For the compound `COc1ccc([C@H]2[C@@H](O)C(=O)N2c2cc(OC)c(OC)c(OC)c2)cc1OCc1ccccc1` [Compound 72, (3R,4S)-4-(3-(benzyloxy)-4-methoxyphenyl)-3-hydroxy-1-(3,4,5-trimethoxyphenyl)azetidin-2-one], the pIC50 in assay [2] and in assay [3] was < 5.00 in each case.

In the case of `COc1ccc([C@H]2[C@@H](OS(C)(=O)=O)C(=O)N2c2cc(OC)c(OC)c(OC)c2)cc1OCc1ccccc1` [Compound 73, (3R,4S)-2-(3-(benzyloxy)-4-methoxyphenyl)-4-oxo-1-(3,4,5-trimethoxyphenyl)azetidin-3-yl methanesulfonate], the pIC50 in assay [2] and in assay [3] was < 5.00 each time.

As for `COc1ccc([C@H]2[C@@H](OS(C)(=O)=O)C(=O)N2c2cc(OC)c(OC)c(OC)c2)cc1O` [Compound 74, (3R,4S)-2-(3-(hydroxy)-4-methoxyphenyl)-4-oxo-1-(3,4,5-trimethoxyphenyl)azetidin-3-yl methanesulfonate], the pIC50 in assay [2] is 6.01; in assay [3], 6.12.

Turning to `COc1ccc([C@H]2[C@H](N=[N+]=[N-])C(=O)N2c2cc(OC)c(OC)c(OC)c2)cc1OCc1ccccc1` [Compound 75, (3S,4S)-3-azido-4-(3-(benzyloxy)-4-methoxyphenyl)-1-(3,4,5-trimethoxyphenyl)azetidin-2-one], the negative-log IC50 (pIC50) in assay [2] and in assay [3] was < 5.00 in each case.

Take `COc1ccc([C@H]2[C@H](N)C(=O)N2c2cc(OC)c(OC)c(OC)c2)cc1OCc1ccccc1` [Compound 76, (3S,4S)-3-amino-4-(3-(benzyloxy)-4-methoxyphenyl)-1-(3,4,5-trimethoxyphenyl)azetidin-2-one]: the pIC50 in assay [2] was 5.07; in assay [3], 5.13.

On to `COc1ccc([C@@H]2N(c3cc(OC)c(OC)c(OC)c3)C(=O)[C@]2(O)CO)cc1OC(C)=O` [Compound 82, 5-((2S,3R)-3-hydroxy-3-(hydroxymethyl)-4-oxo-1-(3,4,5-trimethoxyphenyl)azetidin-2-yl)-2-methoxyphenyl acetate], for which the negative logarithm of the IC50 (pIC50) in assay [2] is 6.20; in assay [3], 6.06.

In the case of `COc1ccc([C@@H]2N(c3cc(OC)c(OC)c(OC)c3)C(=O)[C@@]2(COC(C)=O)OC(C)=O)cc1OC(C)=O` [Compound 83, ((2S,3R)-3-acetoxy-2-(3-acetoxy-4-methoxyphenyl)-4-oxo-1-(3,4,5-trimethoxyphenyl)azetidin-3-yl)methyl acetate], the pIC50 in assay [2] and in assay [3] was < 5.00 each time.

In the case of `COc1ccc([C@@H]2N(c3cc(OC)c(OC)c(OC)c3)C(=O)[C@]2(O)CO)cc1OCc1ccccc1` [Compound 84, (3R,4S)-4-(3-(benzyloxy)-4-methoxyphenyl)-3-hydroxy-3-(hydroxymethyl)-1-(3,4,5-trimethoxyphenyl)azetidin-2-one], the figures for the pIC50 in assay [2] and in assay [3] were 5.63 and < 5.00, respectively.

Take `C=CC(=O)OC[C@@]1(OC(=O)C=C)C(=O)N(c2cc(OC)c(OC)c(OC)c2)[C@H]1c1ccc(OC)c(OC(=O)C=C)c1` [Compound 89, ((2S,3R)-3-(acryloyloxy)-2-(3-(acryloyloxy)-4-methoxyphenyl)-4-oxo-1-(3,4,5-trimethoxyphenyl)azetidin-3-yl)methyl acrylate]: the pIC50 is 5.65 in assay [2] and 5.61 in assay [3].

Turning to `C=CC(=O)N[C@@H]1C(=O)N(c2cc(OC)c(OC)c(OC)c2)[C@H]1c1ccc(OC)c(OC(=O)C=C)c1` [Compound 90, 5-((2S,3S)-3-acrylamido-4-oxo-1-(3,4,5-trimethoxyphenyl)azetidin-2-yl)-2-methoxyphenyl acrylate], the pIC50 in assay [2] is 7.80; in assay [3], 7.60.

For the compound `C=C1CN(c2cc(OC)c(OC)c(OC)c2)[C@H]1c1ccc(OC)c(O)c1` [Compound 91, (S)-2-methoxy-5-(3-methylene-1-(3,4,5-trimethoxyphenyl)azetidin-2-yl)phenol], the pIC50 in assay [2] was 6.61; in assay [3] it was 6.60.

As to `COc1ccc([C@@H]2N(c3cc(OC)c(OC)c(OC)c3)C(=O)[C@]23COC(=O)O3)cc1OC(C)=O` [Compound 92, 5-((1S,4R)-3,6-dioxo-2-(3,4,5-trimethoxyphenyl)-5,7-dioxa-2-azaspiro[3.4]octan-1-yl)-2-methoxyphenyl acetate], the pIC50 in assay [2] is 5.89; in assay [3], 5.80.

On to `COc1ccc([C@H]2C(=O)C(=O)N2c2cc(OC)c(OC)c(OC)c2)cc1OC(C)=O` [Compound 93, (S)-5-(3,4-dioxo-1-(3,4,5-trimethoxyphenyl)azetidin-2-yl)-2-methoxyphenyl acetate], for which the pIC50 in assay [2] and in assay [3] was < 5.00 each time.

As for `COc1ccc([C@@H]2N(c3cc(OC)c(OC)c(OC)c3)C(=O)[C@]2(C)O)cc1OC(C)=O` [Compound 94, 5-((2S,3R)-3-hydroxy-3-methyl-4-oxo-1-(3,4,5-trimethoxyphenyl)azetidin-2-yl)-2-methoxyphenyl acetate], the pIC50 in assay [2] is 6.83; in assay [3], 7.03.

As for `COc1ccc([C@@H]2N(c3cc(OC)c(OC)c(OC)c3)C(=O)[C@]2(C)O)cc1O` [Compound 95, (3R,4S)-3-hydroxy-4-(3-hydroxy-4-methoxyphenyl)-3-methyl-1-(3,4,5-trimethoxyphenyl)azetidin-2-one], the negative-log IC50 (pIC50) in assay [2] is 6.99; in assay [3], 6.67.

Take `COc1ccc([C@@H]2[C@@H](CO)C(=O)N2c2cc(OC)c(OC)c(OC)c2)cc1O` [Compound 99, (3S,4S)-4-(3-hydroxy-4-methoxyphenyl)-3-(hydroxymethyl)-1-(3,4,5-trimethoxyphenyl)azetidin-2-one]: the negative-log IC50 (pIC50) in assay [1], in assay [3] and in assay [4] was < 4.70 each time.

For `COc1ccc([C@@H]2[C@H](CO)C(=O)N2c2cc(OC)c(OC)c(OC)c2)cc1O` [Compound 100, (3R,4S)-4-(3-hydroxy-4-methoxyphenyl)-3-(hydroxymethyl)-1-(3,4,5-trimethoxyphenyl)azetidin-2-one], the pIC50 is 6.42 in assay [1], 6.48 in assay [3] and 6.44 in assay [4].
